Entries after “also recorded” stand apart in the source; their conditions may differ.
How the values were obtained:
HeLa cells = assay: Salmonella invasion of indole-treated HeLa cells (colonization resistance); format: cell-based; settings: host cells treated with indole
CCR9 = CCR9 induction on naïve T cells by conditioned DCs; format: cell-based, mouse
Experimental: FIG. 18 graphically illustrates that indole-conditioned DCs induce CCR9 on naïve T cells upon activation. Naïve CD4+CD25− T cells from OT-II mice were co-cultured with OVA323-339 peptide-loaded BMDCs for 72 hours in the presence of RA as indicated. BMDCs were previously treated with indole, RA, or DMF from day 3. Following 3 days of co-culture, surface staining was performed for flow cytometric analysis.
Based on the observation that indole induces gut homing markers on developing DCs, it was queried whether indole-conditioned DCs could also confer gut homing markers upon naïve CD4+ T cells. The antigen-specific T cell activation model was used to address this question, and a titration of RA was included as a positive control to induce CCR9. […] Just 10 nM of RA enabled indole-DC co-cultures to achieve over 50% of T cells expressing CCR9 which was similar to RA-DC positive controls, whereas DMF-DC co-cultures with the same concentration of RA added achieved only 10% of CCR9+ T cells.
Naïve CD4+CD25− T cells of spleen and lymph nodes from OT-II mice were isolated by negative selection via column purification using the Naïve CD4+ T Cell Isolation Kit (Miltenyi Biotec). Naïve CD4+ T cells (>96% pure) were labeled with Cell Proliferation Dye efluor450 (eBioscience) following manufacturer's instructions then co-cultured with OVA peptide-loaded BMDCs at a ratio of 2:1 for 72 hours in a 96-well round-bottom tissue culture plate. BMDCs were previously treated with indole or RA from day 3. On day 7, DCs were washed extensively prior to being loaded with OVA323-339 peptide (10 ug/ml) for 1 hour at 37° C. BMDCs were then washed three times and plated with naïve CD4+ T cells. RA or TGFβ were added to co-cultures as indicated. Following 3 days of culture, cells were stained with antibodies to CD4, CCR9, and LPAM-1 (α4β7). Intracellular staining for Foxp3 was performed using a Foxp3 staining kit (eBioscience). The remaining CD4+ helper T cell lineages Th1, Th2, and Th17 were identified by their cytokine production. […]

IL-12 = IL-12 production in BMDCs, intracellular staining, flow cytometry; format: cell-based, mouse
Experimental: Intracellular staining was performed to assess TNF (FIG. 3A) and IL-12 (FIG. 3B) production.
Briefly, bone marrow was harvested from femurs of mice and cultured for 7 days in the presence of DC-skewing cytokines, GM-CSF and IL-4. […] The pro-inflammatory cytokines, IL-6 and IL-12, were specifically queried. […] Immune cells communicate largely through the production of soluble factors including cytokines, and DCs detect these signals and determine their effector functions accordingly.
The inventors performed a series of assays where bone marrow derived macrophages (BMDMs), bone marrow derived dendritic cells (BMDCs), and splenic dendritic cells (splenic DCs), were exposed to a series of TDMMs, including indole, indole-3-acetate (I3AT), 5-hydroxyindole (5HI), and indole-3-pyruvate (I3P), as well as indole-3-carbinol (I3C; a plant derived compound) to be used for a positive control (1 mM for 24 hours). The BMDMs and BMDCs were stimulated with LPS for 4 hours and assayed at day 7 for expression of various pro-inflammatory cytokines. In a similar assay, the BMDMs and BMDCs were stimulated with LPS or CpG, respectively, for 15 minutes and assayed for pAKT and pERK signaling, which is a reflection of pro-inflammatory response.

In the case of `c1ccc2[nH]ccc2c1` [Indole, indole], the “reduction of Salmonella invasion of indole-treated HeLa cells” value (HeLa cells) is reported as 70%, the “T cells expressing CCR9” value (CCR9; co-culture with DCs conditioned with indole, 10 nM of RA added) is reported as “over 50%” and the “induction of CCR9 on naïve T cells by conditioned BMDCs alone” value (CCR9; no exogenous RA in the co-culture) is reported as “insufficient; also recorded: did not induce CCR9”. The “reduction in IL-12” value (IL-12; BMDCs exposed to indole from day 3 of 7 day culture, LPS stimulation) was 40%, the IL-12 (IL-12; BMDCs, 1 mM TDMM 24 hours, LPS (1 ug/ml) 4 hours) was “↓↓” and the “inhibition of IL-12 production” value (IL-12; BMDCs, indole 24 hours (overnight), LPS 1 ug/ml 4 hours) was ≥ 2 fold.
